Experiment [1] has as its system basal locomotor activity of mice. In words: Open field, basal locomotor activity of mice (Example 4B). Type of experiment: in vivo, mouse. As to conditions: test condition water; 400 mg/kg IP. Here is the method: (§1) Cariprazine hydrochloride and escitalopram oxalate were evaluated for anti-manic effects using the amphetamine/chlordiazepoxide (AMPH/CDP) hyperactivity test.
(§2) Male C57B1/6J mice (8 weeks old) from Jackson Laboratories (Bar Harbor, Me.) were used in this study. Upon receipt, mice were assigned unique identification numbers (tail marked) and were group housed (4 mice/cage) in OPTI mouse ventilated cages. All animals remained housed in groups of four during the remainder of the study. During the period of acclimation, mice were examined on a regular basis, handled, and weighed to assure adequate health and suitability. Mice were maintained on a 12/12 light/dark cycle. The room temperature was maintained between 20 and 23° C. with a relative humidity maintained between 30% and 70%. Chow and water were provided ad libitum for the duration of the study. In each test, animals were randomly assigned across treatment groups.
(§3) Distance traveled is measured by consecutive beam breaks.
(§4) Data was analyzed by analysis of variance (ANOVA) followed by Fisher PLSD post-hoc analysis when appropriate. An effect was considered significant if p<0.05. Outliers that fell above and below two standard deviations from the mean were removed from the final analysis.

Experiment [2] shares this test system. The experiment can be described thus: Open field, basal locomotor activity of mice (Example 4A). In kind it is in vivo, mouse. The settings on record: test condition water; 400 mg/kg IP, 30 min pretreatment. As to the method: as §1
as §2, with “C57B1/6J mice from Jackson” for “C57B1/6J mice (8 weeks old) from Jackson”, “this study. Mice were received at 6-weeks of age. Upon receipt,” for “this study. Upon receipt,”, “group housed with 4 mice/cage. All animals” for “group housed (4 mice/cage) in OPTI mouse ventilated cages. All animals”, “the study. All mice were acclimated to the colony room for at least two weeks prior to testing and were subsequently tested at an average age of 8 weeks of age. During the” for “the study. During the”
as §3, §4

For experiment [3], the system named is d-amphetamine/chlordiazepoxide mixture (AMPH/CDP)-induced hyperactivity in mice. In words: d-Amphetamine/chlordiazepoxide (AMPH/CDP) hyperactivity test (Example 4A). Type of experiment: in vivo, mouse. As to conditions: test condition AMPH/CDP; 400 mg/kg IP, 30 min pretreatment. Here is the method:
as §1
as §2, with “C57B1/6J mice from Jackson” for “C57B1/6J mice (8 weeks old) from Jackson”, “this study. Mice were received at 6-weeks of age. Upon receipt,” for “this study. Upon receipt,”, “group housed with 4 mice/cage. All animals” for “group housed (4 mice/cage) in OPTI mouse ventilated cages. All animals”, “the study. All mice were acclimated to the colony room for at least two weeks prior to testing and were subsequently tested at an average age of 8 weeks of age. During the” for “the study. During the”
(§5) d-Amphetamine sulfate (Sigma, 4.0 mg/kg) and chlordiazepoxide (CDP; Sigma, 2.5 mg/kg) were dissolved in sterile water and were administered intraperitoneally at a dose volume of 10 ml/kg.
as §3, §4

Experiment [4] shares this test system. The experiment can be described thus: d-Amphetamine/chlordiazepoxide (AMPH/CDP) hyperactivity test (Example 4B). Type of experiment: in vivo, mouse. As to conditions: test condition AMPH/CDP; 400 mg/kg IP. Here is the method: as §1, §2, §5, §3, §4
Experiment [5] relates to chronic mild stress (CMS) model of depression. The experiment can be described thus: Chronic mild stress (CMS) model of depression, sucrose consumption (Example 2). Type of experiment: in vivo, rat. The settings on record: imipramine 10 mg/kg IP once daily, stressed animals. From the text: This study evaluated the antidepressant effect of cariprazine hydrochloride in the chronic mild stress (CMS) model of depression. A comparison to the efficacy of the tricyciclic antidepressant compound imipramine was also made.
Male Wistar rats were adapted to laboratory and housing conditions for 3 weeks, followed by adoption to consumption of 1% sucrose solution for an additional 5 weeks before being separated into control and to-be-stressed groups.
Chronic stress was applied to the allocated group for seven weeks. The following stressors were used: food and/or water deprivation, cage tilting (45 degrees backwards), intermittent illumination, paired housing, soiled cage (250 mL of tap water in sawdust bedding), stroboscopic illumination (150 flashed per minute), no stress. All stressors were 10-14 hours in duration and were applied individually and continuously, once or twice weekly, during the day and at night.
Consumption of sucrose solution was measured in 1-hour tests conducted on all animals (i.e., controls and stressed) once weekly throughout the entire experiment. The tests were preceded by 14 hours of food and water deprivation. On the basis of their sucrose intakes following the initial 2 weeks of stress, both stressed and control animals received once-daily chronic (5 weeks) IP injections of vehicle (1% methyl cellulose, 1 mL/kg), cariprazine hydrochloride (0.0625, 0.25 or 1.0 mg/kg), or imipramine (10 mg/kg) as reference treatment. […] These animals were considered weak responders/non-responders and were eliminated from the analysis.

Experiment [6] has the same test system. The experiment can be described thus: Chronic mild stress (CMS) model of depression, sucrose consumption (Example 3). Type of experiment: in vivo, rat. The settings on record: imipramine, reference treatment in parallel studies. The text has this: Similar to the study described in Example 2, additional studies were undertaken to further evaluate the antidepressant effect of cariprazine hydrochloride, administered alone, or in combination with escitalopram oxalate, in a chronic mild stress model of depression
In the chronic mild stress (CMS) model, rats subjected to a variety of mild stressors for a prolonged period of time show a substantial decrease in their responsiveness to rewarding stimuli. This deficit is usually monitored by a decrease in the consumption of a 1% sucrose solution, but can also be seen in other tests, such as place preference conditioning or intracranial self-stimulation. The subsensitivity to reward appears to reflect anhedonia (inability to experience pleasure), which is a core symptom of major depressive disorders. Clinically approved antidepressants have shown activity in this animal model by reversing the effects of CMS on sucrose consumption. See, e.g., Sanchez C, Gruca P, Papp M, Behavioural Pharmacology 14, 465-470, 2003.
Male Wistar rats (Charles River, Germany) were brought into the laboratory two months before the start of the experiment. Except as described below, the animals were singly housed with food and water freely available, and were maintained on a 12-h light/dark and in a constant temperature (22±2° C.) and humidity (50±5%) conditions.
The animals were first trained to consume a 1% sucrose solution; training consisted of nine 1 h baseline tests in which sucrose was presented, in the home cage, following 14 h food and water deprivation. The sucrose intake was measured by weighing pre-weighed bottles containing the sucrose solution, at the end of the test. Subsequently, sucrose consumption was monitored, under similar conditions, at weekly intervals throughout the whole experiment.
On the basis of their sucrose intakes in the final baseline test, the animals were divided into two matched groups. One group of animals was subjected to the chronic mild stress procedure for a period of 7 consecutive weeks. Each week of stress regime consisted of: two periods of food or water deprivation, two periods of 45 degree cage tilt, two periods of intermittent illumination (lights on and off every 2 h), two periods of soiled cage (250 ml water in sawdust bedding), one period of paired housing, two periods of low intensity stroboscopic illumination (150 flashes/min), and three periods of no stress. All stressors were 10-14 h of duration and were applied individually and continuously, day and night. Control animals were housed in separate rooms and had no contact with the stressed animals. They were deprived of food and water for 14 h preceding each sucrose test, but otherwise food and water were freely available in the home cage.

In the case of `CCCC(CCC)C(=O)O` [Valproate], the “Total Distance Traveled [mean ± SEM]” value came out at 3365 ± 612 cm/60 min in experiment [1], 4471 ± 298 cm/60 min in experiment [2], 17496 ± 1788 cm/60 min in experiment [3] and 18478 ± 2961 cm/60 min in experiment [4].

Turning to `CN(C)CCCN1c2ccccc2CCc2ccccc21` [imipramine, reference compound], in experiment [5] (5 weeks), the “CMS-induced decrease in consumption of 1% sucrose solution” value was “fully reversed”. For the same compound, in experiment [5], the “onset of action: effect on sucrose drinking evident at” value was found to be 3 Week. In addition, the “time until effect on sucrose consumption reached significance” value in experiment [6] is given as “after three weeks of administration”.

These data come from patent publication US20110015208A1, “PHARMACEUTICAL COMPOSITIONS CONTAINING DOPAMINE RECEPTOR LIGANDS AND METHODS OF TREATMENT USING DOPAMINE RECEPTOR LIGANDS” (priority 2007, published 2011).
